ChEMBL document CHEMBL6109080, “Synthesis and mechanistic insights of Coumarinyl-Indolinone hybrids as potent inhibitors of Leishmania major” (Eur J Med Chem, 2025)

How the values were obtained:
[1] = test system: Leishmania major; experiment: Antileishmanial activity against […] promastigote form of Leishmania major assessed as inhibition of parasite growth by alamar-blue reduction assay; type: functional, organism-based
[2] = test system: Leishmania major; experiment: Antileishmanial activity against intracellular amastigotes form of Leishmania major assessed as inhibition of parasite growth by alamar-blue reduction assay; type: functional, organism-based
[3] = test system: Leishmania infantum; experiment: Antileishmanial activity against Leishmania infantum MHOM/MA(BE)/67 infected in mouse peritoneal macrophage cell incubated for 5 days by giemsa staining based analysis; type: functional, organism-based; conditions: MHOM/MA(BE)/67, Peritoneal macrophage cell, 120 h
[4] = test system: Leishmania major; experiment: Antileishmanial activity against Leishmania major promastigotes assessed as parasite survival measured after 72 hrs by hemocytometric analysis relative to control; type: functional
[5] = test system: Leishmania major; experiment: Antileishmanial activity against Leishmania major promastigotes assessed as parasite survival preincubated with 20 uM folic acid for 1 hrs followed by compound addition and measured after 48 hrs by hemocytometric analysis relative to control; type: functional
[6] = test system: Leishmania major; experiment: Antileishmanial activity against Leishmania major promastigotes assessed as parasite survival preincubated with 100 uM folic acid for 1 hrs followed by compound addition and measured after 48 hrs by hemocytometric analysis relative to control; type: functional
[7] = test system: Leishmania major; experiment: Antileishmanial activity against Leishmania major promastigotes assessed as parasite survival preincubated with 20 uM folinic acid for 1 hrs followed by compound addition and measured after 48 hrs by hemocytometric analysis relative to control; type: functional
[8] = test system: Leishmania major; experiment: Antileishmanial activity against Leishmania major promastigotes assessed as parasite survival preincubated with 100 uM folinic acid for 1 hrs followed by compound addition and measured after 48 hrs by hemocytometric analysis relative to control; type: functional
[9] = Cytotoxicity against African green monkey Vero cells assessed as reduction in cell survival incubated for 72 hrs by crystal violet staining based analysis; type: toxicity; conditions: chlorocebus sabaeus
[10] = Selectivity index, ratio of CC50 for cytotoxicity against African green monkey Vero cells assessed as reduction in cell viability to IC50 for antileishmanial activity against Leishmania major amastigotes assessed as inhibition of parasite growth; type: toxicity, cell-based; conditions: read-out: Ratio CC50/IC50
[11] = Hepatotoxicity in male mouse assessed as ALT level at 50 mg/kg, ip measured after 48 hrs (reference value: 28.23 +/- 6.57 U/L); type: toxicity, organism-based; conditions: in vivo
[12] = Hepatotoxicity in male mouse assessed as ALT level at 200 mg/kg, ip measured after 48 hrs (reference value: 28.23 +/- 6.57 U/L); type: toxicity, organism-based; conditions: in vivo
[13] = Hepatotoxicity in male mouse assessed as AST level at 50 mg/kg, ip measured after 48 hrs (reference value: 47.72 +/- 4.77 U/L); type: toxicity, organism-based; conditions: in vivo
[14] = Hepatotoxicity in male mouse assessed as AST level at 200 mg/kg, ip measured after 48 hrs (reference value: 47.72 +/- 4.77 U/L); type: toxicity, organism-based; conditions: in vivo
[15] = Hepatotoxicity in male mouse assessed as ALP level at 50 mg/kg, ip measured after 48 hrs (reference value: 115.44 +/- 8.03 U/L); type: toxicity, organism-based; conditions: in vivo
[16] = Hepatotoxicity in male mouse assessed as effect on ALP level at 200 mg/kg, ip measured after 48 hrs (reference value: 115.44 +/- 8.03 U/L); type: toxicity, organism-based; conditions: in vivo
[17] = Renal toxicity in male mouse assessed as serum urea level at 50 mg/kg, ip measured after 48 hrs (reference value: 36.51 +/- 1.51 mg/dl); type: organism-based; conditions: in vivo
[18] = Renal toxicity in male mouse assessed as serum urea level at 200 mg/kg, ip measured after 48 hrs (reference value: 36.51 +/- 1.51 mg/dl); type: organism-based; conditions: in vivo
[19] = Renal toxicity in male mouse assessed as serum creatinine level at 50 mg/kg, ip measured after 48 hrs (reference value: 0.66 +/- 0.02 mg/dl); type: organism-based; conditions: in vivo
[20] = Renal toxicity in male mouse assessed as serum creatinine level at 200 mg/kg, ip measured after 48 hrs (reference value: 0.66 +/- 0.02 mg/dl); type: organism-based; conditions: in vivo
[21] = Toxicity in male mouse assessed as CK-MB level at 50 mg/kg, ip measured after 48 hrs (reference value: 41.27 +/- […]); type: organism-based; conditions: in vivo
[22] = Toxicity in male mouse assessed as CK-MB level at 200 mg/kg, ip measured after 48 hrs (reference value: 41.27 +/- […]); type: organism-based; conditions: in vivo
[23] = test system: Leishmania major; experiment: Antileishmanial activity against Leishmania major promastigotes assessed as parasite survival at 100 uM measured after 72 hrs by hemocytometric analysis relative to control

Structure (SMILES)	IC50 [1] [µM]	IC50 [2] [µM]	further results
CC(C)CN1C(=O)C(n2nc(-c3c(O)c4ccccc4oc3=O)cc2-c2ccc(Br)cc2)c2cc(Br)ccc21 (stereo unspecified)	6.93	8.22	–
CCCN1C(=O)C(n2nc(-c3c(O)c4ccccc4oc3=O)cc2-c2ccc(Br)cc2)c2cc(Cl)ccc21 (stereo unspecified)	4.73	6.82	–
CC(C)CN1C(=O)C(n2nc(-c3c(O)c4ccccc4oc3=O)cc2-c2ccc(F)cc2)c2cc(Cl)ccc21 (stereo unspecified)	5.71	7.28	–
CC(C)CN1C(=O)C(n2nc(-c3c(O)c4ccccc4oc3=O)cc2-c2ccc(F)cc2)c2cc(Br)ccc21 (stereo unspecified)	6.22	6.87	–
O=C(Nc1cc(-c2ccccc2F)n[nH]1)Oc1ccccc1	–	–	IC50 [3]: 20 µM
O=C1Nc2ccc([N+](=O)[O-])cc2C1n1nc(-c2c(O)c3ccccc3oc2=O)cc1-c1ccc(Cl)cc1 (stereo unspecified)	1.43	1.44	Survival [4]: 21%; Survival [5]: 68%; Survival [6]: 73%; Survival [7]: 78%; Survival [8]: 85%; CC50 at 72 h [9]: 60.7 µM; selectivity ratio [10]: 42.3; Activity [11]: 29.39 U/L; Activity [12]: 32.59 U/L; Activity [13]: 45.98 U/L; Activity [14]: 48.89 U/L; Activity [15]: 106.35 U/L; Activity [16]: 113.63 U/L; Activity [17]: 34.17 mg/dL; Activity [18]: 38.32 mg/dL; Activity [19]: 0.62 mg/dL; Activity [20]: 0.61 mg/dL; Activity [21]: 44.71 U/L; Activity [22]: 44.71 U/L
O=C1Nc2ccc([N+](=O)[O-])cc2C1n1nc(-c2c(O)c3ccccc3oc2=O)cc1-c1ccc(Br)cc1 (stereo unspecified)	2.47	3.88	–
CN1C(=O)C(n2nc(-c3c(O)c4ccccc4oc3=O)cc2-c2ccc(F)cc2)c2cc(Cl)ccc21 (stereo unspecified)	4.05	6.82	–
O=C1C(n2nc(-c3c(O)c4ccccc4oc3=O)cc2-c2ccc(Cl)cc2)c2ccccc2N1CCc1ccccc1 (stereo unspecified)	5.92	8.47	–
O=C1C(n2nc(-c3c(O)c4ccccc4oc3=O)cc2-c2ccc(Br)cc2)c2ccccc2N1CCc1ccccc1 (stereo unspecified)	7.21	9.44	–
CCCN1C(=O)C(n2nc(-c3c(O)c4ccccc4oc3=O)cc2-c2ccc(F)cc2)c2cc(Cl)ccc21 (stereo unspecified)	4.64	5.82	–
CC(C)CN1C(=O)C(n2nc(-c3c(O)c4ccccc4oc3=O)cc2-c2ccc(Br)cc2)c2cc(Cl)ccc21 (stereo unspecified)	5.07	6.64	–
CCCN1C(=O)C(n2nc(-c3c(O)c4ccccc4oc3=O)cc2-c2ccc(Cl)cc2)c2cc(Cl)ccc21 (stereo unspecified)	5.6	7.29	–
COc1ccc(-c2cc(NC(=O)N3CCC(Cc4ccccc4)CC3)[nH]n2)cc1	–	–	IC50 [3]: 19 µM
CC(C)CN1C(=O)C(n2nc(-c3c(O)c4ccccc4oc3=O)cc2-c2ccc(Cl)cc2)c2cc(Cl)ccc21 (stereo unspecified)	6.59	8.25	–
CC(C)CN1C(=O)C(n2nc(-c3c(O)c4ccccc4oc3=O)cc2-c2ccc(Cl)cc2)c2cc(Br)ccc21 (stereo unspecified)	5.99	7.54	–
COc1cc(Cc2cnc(N)nc2N)cc(OC)c1OC [TRIMETHOPRIM]	–	–	Survival [6]: 99%; survival at 100 µM [23]: 72%
